Measurements from publication PMC6001238, “Iterative Chemical Engineering of Vancomycin Leads to Novel Vancomycin Analogs With a High in Vitro Therapeutic Index” (Frontiers in Microbiology, 2018).
In brackets after ≈: the same amount, converted by molar mass.

Experiments:
[1] = test system: human cervix carcinoma (HeLa) cells; test: Cytostatic activity, HeLa cell proliferation; format: cell-based; conditions: mean ± SD of three experiments; highest concentration tested 250 µM; 4 days; read-out: Toxicity (IC50) HeLa
Procedure: (§1) Murine leukemia (L1210), human T-lymphocyte (CEM) and the human cervix carcinoma (HeLa) cell line were suspended at 300,000–500,000 cells/mL of culture medium, and 100 μL of a cell suspension was added to 100 μL of an appropriate dilution of the test compounds in wells of 96-well microtiter plates. After incubation at 37°C for 2 (L1210), 3 (CEM), or 4 (HeLa) days, the cell number was determined using a Coulter counter. The IC50 was defined per cell type as the compound concentration required to inhibit cell proliferation by 50% compared to the negative control ([Glowacka et al., 2017]).

[2] = test system: S. aureus VSSA (ATCC 6538); test: MIC, broth microdilution, vancomycin-sensitive S. aureus (VSSA/MSSA, ATCC 6538); format: cell-based, Staphylococcus aureus; conditions: for MIC: Staphylococcus aureus VSSA, read-out: MIC; for MIC-fold improvement vs. vancomycin: VSSA, ratio of MIC of vancomycin and MIC of analogue
Procedure: (§2) The minimum inhibitory concentration (MIC) was determined using the broth microdilution method according to the antimicrobial susceptibility testing standards of the clinical and laboratory standards institute ([Clinical and Laboratory Standards Institute [CLSI], 2012]). Ultrapure water and non-inoculated broth were used as controls. In one case, a final concentration of 10 μM vancomycin was included with the vancomycin analog or control antibiotic.

[3] = test system: Murine leukemia (L1210) cells; test: Cytostatic activity, L1210 cell proliferation; format: cell-based; conditions: mean ± SD of three experiments; highest concentration tested 250 µM; 2 days; read-out: Toxicity (IC50) L1210
Procedure: as §1

[4] = test system: E. faecalis VRE 6; test: MIC, broth microdilution, vancomycin-resistant E. faecalis VRE 6 (VanA); format: cell-based, Enterococcus faecalis; conditions: for MIC: Enterococcus faecalis VRE 6 (vancomycin-resistant), read-out: MIC; for MIC-fold improvement vs. vancomycin: VRE 6, ratio of MIC of vancomycin and MIC of analogue
Procedure: as §2

[5] = test system: S. aureus VISA/HIP5827; test: MIC, broth microdilution, vancomycin-intermediate S. aureus VISA HIP5827; format: cell-based, Staphylococcus aureus; conditions: for MIC: Staphylococcus aureus VISA/HIP5827, read-out: MIC; for MIC-fold improvement vs. vancomycin: VISA/HIP5827, ratio of MIC of vancomycin and MIC of analogue
Procedure: as §2

[6] = test system: E. faecalis VSE 1; test: MIC, broth microdilution, vancomycin-sensitive E. faecalis (VSE 1); format: cell-based, Enterococcus faecalis; conditions: for MIC: Enterococcus faecalis VSE 1 (vancomycin-sensitive), read-out: MIC; for MIC-fold improvement vs. vancomycin: VSE 1, ratio of MIC of vancomycin and MIC of analogue
Procedure: as §2

[7] = test system: human T-lymphocyte (CEM) cells; test: Cytostatic activity, CEM cell proliferation; format: cell-based; conditions: mean ± SD of three experiments; highest concentration tested 250 µM; 3 days; read-out: Toxicity (IC50) CEM
Procedure: as §1

[8] = test system: E. faecalis VRE 29; test: MIC, broth microdilution, vancomycin-resistant E. faecalis VRE 29 (VanA); format: cell-based, Enterococcus faecalis; conditions: for MIC: Enterococcus faecalis VRE 29 (vancomycin-resistant), read-out: MIC; for MIC-fold improvement vs. vancomycin: VRE 29, ratio of MIC of vancomycin and MIC of analogue
Procedure: as §2

[9] = test system: L1210, CEM and HeLa cell lines; test: Cytostatic activity, average or summary over L1210, CEM and HeLa; format: cell-based; conditions: average of L1210, CEM and HeLa; read-out: Toxicity (IC50) Average
Procedure: as §1

[10] = test system: E. faecalis VRE 53; test: MIC, broth microdilution, vancomycin-resistant E. faecalis VRE 53 (VanA); format: cell-based, Enterococcus faecalis; conditions: for MIC: Enterococcus faecalis VRE 53 (vancomycin-resistant), read-out: MIC; for MIC-fold improvement vs. vancomycin: VRE 53, ratio of MIC of vancomycin and MIC of analogue
Procedure: as §2

[11] = test system: MRSA KS89; test: MIC, broth microdilution, MRSA KS89; format: cell-based, Staphylococcus aureus; conditions: for MIC-fold improvement vs. vancomycin: MRSA KS8, ratio of MIC of vancomycin and MIC of analogue; for MIC: Staphylococcus aureus MRSA KS8, read-out: MIC
Procedure: as §2

[12] = test system: MRSA KS6; test: MIC, broth microdilution, MRSA KS6; format: cell-based, Staphylococcus aureus
Procedure: as §2

[13] = test system: E. faecalis VRE 37; test: MIC, broth microdilution, vancomycin-resistant E. faecalis VRE 37 (VanA); format: cell-based, Enterococcus faecalis; conditions: for MIC: Enterococcus faecalis VRE 37 (vancomycin-resistant), read-out: MIC; for MIC-fold improvement vs. vancomycin: VRE 37, ratio of MIC of vancomycin and MIC of analogue
Procedure: as §2

[14] = test system: MRSA KS1; test: MIC, broth microdilution, MRSA KS1; format: cell-based, Staphylococcus aureus
Procedure: as §2

[15] = test system: MRSA KS2; test: MIC, broth microdilution, MRSA KS2; format: cell-based, Staphylococcus aureus
Procedure: as §2

[16] = test system: S. aureus VRSA; test: MIC, broth microdilution, vancomycin-resistant S. aureus (VRSA); format: cell-based, Staphylococcus aureus; conditions: for MIC: Staphylococcus aureus VRSA, read-out: MIC; for MIC-fold improvement vs. vancomycin: VRSA, ratio of MIC of vancomycin and MIC of analogue
Procedure: as §2

Row | Compound | IC50 [1] [µM] | MIC [2] [µM] | MIC-fold improvement vs. vancomycin [2] | IC50 [3] [µM] | MIC [4] [µM] | MIC-fold improvement vs. vancomycin [4] | MIC [5] [µM] | MIC-fold improvement vs. vancomycin [5] | MIC [6] [µM] | MIC-fold improvement vs. vancomycin [6] | IC50 [7] [µM] | MIC [8] [µM] | MIC-fold improvement vs. vancomycin [8] | IC50 [9] [µM] | MIC [10] [µM] | MIC-fold improvement vs. vancomycin [10] | MIC-fold improvement vs. vancomycin [11] | MIC [11] [µM] | MIC [13] [µM] | MIC-fold improvement vs. vancomycin [13] | other results
1 | CN[C@H](CC(C)C)C(=O)N[C@H]1C(=O)N[C@@H](CC(N)=O)C(=O)N[C@H]2C(=O)N[C@H]3C(=O)N[C@H](C(=O)N[C@H](C(=O)NCCNC(=O)/C=C/c4ccc(OC)cc4)c4cc(O)cc(O)c4-c4cc3ccc4O)[C@H](O)c3ccc(c(Cl)c3)Oc3cc2cc(c3O[C@@H]2O[C@H](CO)[C@@H](O)[C@H](O)[C@H]2O[C@H]2C[C@](C)(N)[C@H](O)[C@H](C)O2)Oc2ccc(cc2Cl)[C@H]1O [Vanc-36] | 89 ± 18 | 0.39 (≈ 0.644 µg/mL) | 2 | > 250 | 1.56 (≈ 2.58 µg/mL) | 128 | 0.39 (≈ 0.644 µg/mL) | 16 | 0.39 (≈ 0.644 µg/mL) | 4 | > 250 | 12.5 (≈ 20.6 µg/mL) | 32 | 196 | 50 (≈ 82.6 µg/mL) | 8 | 1 | 0.78 (≈ 1.29 µg/mL) | 12.5 (≈ 20.6 µg/mL) | – | MIC-fold improvement vs. vancomycin ([12]; MRSA KS6, ratio of MIC of vancomycin and MIC of analogue): 2; MIC ([12]; Staphylococcus aureus MRSA KS6, read-out: MIC): 0.39 µM (≈ 0.644 µg/mL); MIC-fold improvement vs. vancomycin ([14]; MRSA KS1, ratio of MIC of vancomycin and MIC of analogue): 1; MIC ([14]; Staphylococcus aureus MRSA KS1, read-out: MIC): 0.78 µM (≈ 1.29 µg/mL); MIC-fold improvement vs. vancomycin ([15]; MRSA KS2, ratio of MIC of vancomycin and MIC of analogue): 2; MIC ([15]; Staphylococcus aureus MRSA KS2, read-out: MIC): 0.39 µM (≈ 0.644 µg/mL)
2 | CCCC#Cc1ccc(NC(=O)CNC(=O)C2NC(=O)C3NC(=O)C(NC(=O)C4NC(=O)C(CC(N)=O)NC(=O)C(NC(=O)C(CC(C)C)NC)C(O)c5ccc(c(Cl)c5)Oc5cc4cc(c5OC4OC(CO)C(O)C(O)C4OC4CC(C)(N)C(O)C(C)O4)Oc4ccc(cc4Cl)C3O)c3ccc(O)c(c3)-c3c(O)cc(O)cc32)cc1 (stereo not shown) [Vanc-68] | 55 ± 20 | 0.78 (≈ 1.29 µg/mL) | 1 | 42 ± 14 | 3.13 (≈ 5.16 µg/mL) | 64 | 0.39 (≈ 0.643 µg/mL) | 16 | 0.78 (≈ 1.29 µg/mL) | 2 | 19 ± 1 | 3.13 (≈ 5.16 µg/mL) | 128 | 39 | 3.13 (≈ 5.16 µg/mL) | 128 | – | – | 3.13 (≈ 5.16 µg/mL) | 128 | MIC [16]: 1.56 µM (≈ 2.57 µg/mL); MIC-fold improvement vs. vancomycin [16]: 64
3 | CNC(CC(C)C)C(=O)NC1C(=O)NC(CC(N)=O)C(=O)NC2C(=O)NC3C(=O)NC(C(=O)NC(C(=O)NCC(=O)Nc4ccc(-c5cnnn5C5OC(COC(C)=O)C(OC(C)=O)C(OC(C)=O)C5OC(C)=O)cc4)c4cc(O)cc(O)c4-c4cc3ccc4O)C(O)c3ccc(c(Cl)c3)Oc3cc2cc(c3OC2OC(CO)C(O)C(O)C2OC2CC(C)(N)C(O)C(C)O2)Oc2ccc(cc2Cl)C1O (stereo not shown) [Vanc-78] | 57 ± 32 | 0.78 (≈ 1.54 µg/mL) | 1 | > 250 | 3.13 (≈ 6.19 µg/mL) | 64 | 3.13 (≈ 6.19 µg/mL) | 2 | 0.78 (≈ 1.54 µg/mL) | 2 | > 250 | 50 (≈ 98.9 µg/mL) | 8 | 186 | 50 (≈ 98.9 µg/mL) | 8 | 1 | 0.78 (≈ 1.54 µg/mL) | 50 (≈ 98.9 µg/mL) | 8 | MIC [16]: 3.13 µM (≈ 6.19 µg/mL); MIC-fold improvement vs. vancomycin [16]: 32
4 | CCCCC[N+](C)(C)CCCNC(=O)c1ccc(NC(=O)CNC(=O)C2NC(=O)C3NC(=O)C(NC(=O)C4NC(=O)C(CC(N)=O)NC(=O)C(NC(=O)C(CC(C)C)NC)C(O)c5ccc(c(Cl)c5)Oc5cc4cc(c5OC4OC(CO)C(O)C(O)C4OC4CC(C)(N)C(O)C(C)O4)Oc4ccc(cc4Cl)C3O)c3ccc(O)c(c3)-c3c(O)cc(O)cc32)cc1 (stereo not shown) [Vanc-80] | 238 | 0.78 | 1 | 230 ± 3 | 6.25 | 32 | 6.25 | 1 | 1.56 | 1 | > 250 | 50 | 8 | 239 | 50 | 8 | 1 | 0.78 | 50 | 8 | MIC [16]: 1.56 µM; MIC-fold improvement vs. vancomycin [16]: 64
5 | CCCCCCCC[N+](C)(C)CCCNC(=O)c1ccc(NC(=O)CNC(=O)C2NC(=O)C3NC(=O)C(NC(=O)C4NC(=O)C(CC(N)=O)NC(=O)C(NC(=O)C(CC(C)C)NC)C(O)c5ccc(c(Cl)c5)Oc5cc4cc(c5OC4OC(CO)C(O)C(O)C4OC4CC(C)(N)C(O)C(C)O4)Oc4ccc(cc4Cl)C3O)c3ccc(O)c(c3)-c3c(O)cc(O)cc32)cc1 (stereo not shown) [Vanc-81] | 122 ± 13 | 0.39 | 2 | 164 ± 6 | ≤0.39 | >512 | 6.25 | 1 | 0.78 | 2 | > 250 | 25 | 16 | 179 | 25 | 16 | 4 | 0.20 | 25 | 16 | MIC [16]: 0.78 µM; MIC-fold improvement vs. vancomycin [16]: 128
6 | CNC(CC(C)C)C(=O)NC1C(=O)NC(CC(N)=O)C(=O)NC2C(=O)NC3C(=O)NC(C(=O)NC(C(=O)NCC(=O)Nc4ccc(C(=O)NCCCN(C)C)cc4)c4cc(O)cc(O)c4-c4cc3ccc4O)C(O)c3ccc(c(Cl)c3)Oc3cc2cc(c3OC2OC(CO)C(O)C(O)C2OC2CC(C)(N)C(O)C(C)O2)Oc2ccc(cc2Cl)C1O (stereo not shown) [Vanc-82] | > 250 | 1.56 (≈ 2.67 µg/mL) | 0.5 | > 250 | 6.25 (≈ 10.7 µg/mL) | 32 | >12.5 | <0.5 | 1.56 (≈ 2.67 µg/mL) | 1 | > 250 | >50 | <8 | > 250 | 50 (≈ 85.5 µg/mL) | 8 | 1 | 0.78 (≈ 1.33 µg/mL) | >50 | <8 | MIC [16]: 3.13 µM (≈ 5.35 µg/mL); MIC-fold improvement vs. vancomycin [16]: 32
